Assay type in all cases: cell-based, Escherichia coli
One test relates to E. coli cells. Briefly: Membrane permeabilization assay (PI uptake, flow cytometry). The following applies: 1 h; for PI positive cells: at lower and higher concentrations, from 2 to 10 µM, 10^6 CFU/mL, PI 1.3 µg/mL, 37 °C, flow cytometry; for cell viability on plating the cell suspension used for the PI uptake assay, in words: same cell density and peptide concentrations as PI uptake experiment. Here is the method: Membrane permeabilization of E. coli cells was determined via propidium iodide (PI) uptake assay through flow cytometry as described previously with slight modifications. Briefly, mid-log phase E. coli cells were adjusted to 10^6 CFU/mL in the HEPES-glucose buffer. Next, cells were incubated with propidium iodide (PI) at 1.3 µg/mL concentration for 30 min in the dark. After incubation, PI-loaded cells were treated with a range of peptide concentrations, i.e., 1 µM, 2 µM, 5 µM, and 10 µM, at 37 °C for 1 h, and PI fluorescence intensity was measured through Becton Dickinson (BD) FACS verse (San Jose, CA) flow cytometer using excitation at 544 nm and emission at 620 nm.
Figure S2: Histograms of E. coli cells treated with 2 µM concentration of α-MSH and its analogues and 1 µM concentration of polymyxin B for 1 h. Towards monitoring the membrane permeabilizations of E. coli cells, propidium iodide (PI) uptake assay through flow cytometry was performed using the previously standardized method with mild modifications ^2. Briefly, mid-log phase grown E. coli cells (10^6 CFU/mL) suspended in the HEPES-glucose buffer were incubated with propidium iodide (PI) at a concentration of 1.3 µg/mL for 30 min in dark. After incubation, PI loaded cells were treated with a range of peptide concentrations; 1 µM, 2 µM, 5 µM and 10 µM at 37 °C for 1 h, and PI fluorescence intensity was measured through Becton Dickinson (BD) FACS verse (San Jose, CA) flow cytometer using excitation at 544 nm and emission at 620 nm.
On the technique in general: A flow cytometer gives signals particle by particle.

Test [1] deals with stationary phase E. coli cells. Briefly: Killing assay, stationary phase cells. The following applies: 10^5 CFU/mL. As for the experimental part: For this study, a well-characterized strain of E. coli (ATCC 25922) was used. The strain was stored at − 80 °C in 15% (v/v) glycerol until sub-cultured onto LB agar plates for use.
The antibacterial activity of α-MSH and its cationic analogues was determined against both logarithmic (2–3 h) and stationary (16–18 h) phase of E. coli cells in LB medium. The bacterial suspension was pelleted, washed, and diluted in HEPES-glucose buffer (5 mM HEPES, 20 mM glucose, pH 7.4) to adjust the cell density by measuring the OD = 0.5 (10^8 CFU/mL) at 600 nm using a spectrophotometer. This suspension was used to obtain the desired inoculum sizes (10^5 CFU/mL, 10^6 CFU/mL, and 10^7 CFU/mL). The inoculums were exposed to various concentrations of peptides (1 µM, 2 µM, 5 µM, and 10 µM) and incubated at 37 °C. Untreated E. coli cells were also included as a control. At selected time points (0 min, 15 min, 30 min, 60 min, and 120 min), aliquots were taken out, and survival of E. coli cells was determined by quantitative plating on LB agar after appropriate dilution in the same buffer. The plates were incubated overnight at 37 °C, followed by colony counting. Each experiment was performed at least three times on three independent days.

A further test deals with E. coli outer membrane. Briefly: Outer membrane permeabilization assay (NPN uptake). The following applies: 10^8 CFU/mL mid-log cells, 10 μM NPN, relative to 10 µM polymyxin B = 100%. Here is the method: The outer membrane permeabilization assay was done as described in the literature with slight modifications. Briefly, bacterial cells were grown to mid-log phase in LB medium, washed and diluted to 10^8 CFU/mL in HEPES-glucose buffer. Next, this bacterial suspension was treated with 10 μM NPN probe and subsequently challenged with increasing concentrations of peptides (1 µM to 20 µM). Changes in the fluorescence intensity of NPN were measured with the help of Shimadzu RF-5301 PC spectrofluorimeter (excitation at 350 nm and emission at 420 nm). Increased intensity of emission resulted from the damage to the bacterial outer membrane and was measured until no further increase in fluorescence was observed. NPN uptake was calculated using the following formula: %NPNuptake=Fobs-F0/F100-F0×100 where Fobs is the NPN fluorescence intensity after the peptide treatment, F0 is the NPN fluorescence with untreated E. coli cells, and F100 is the NPN fluorescence in the presence of 10 µM polymyxin B (a positive control).

For a further test, the system named is dye-loaded E. coli cells. Briefly: Viability of DiSC3(5) dye-loaded cells by plating. The following applies: dye-loaded cells 10^6, HEPES-glucose buffer, two different days. As for the experimental part:
The membrane depolarization of E. coli cells was determined using a potentiometric fluorescent probe DiSC3(5), as described elsewhere. Briefly, mid-log phase E. coli cells were diluted to 10^6 CFU/mL in the same HEPES-glucose buffer and were incubated with DiSC3(5) and EDTA at 0.4 µM and 0.2 mM concentrations, respectively, for 1 h in the dark at 37 °C, till the maximum uptake of the probe occurred. Increasing concentrations of the studied peptides from 1 µM to 10 µM were then added to these dye-loaded cells in a quartz cuvette, and the fluorescence intensity was measured on spectrofluorimeter (Shimadzu RF-5301 PC) set as excitation at 622 nm and emission at 670 nm. The increase in fluorescence intensity accounted for the dissipation of membrane potential caused due to peptide treatment. Cells treated with 10 µM melittin were used as a positive control. Simultaneously, the dye-loaded cells were plated onto LB agar to estimate bacterial cell death.
Figure S1: Survival of dye-loaded cells (10^6) treated with various concentrations of peptides that correspond to the inner membrane depolarization. The dye-loaded E. coli cells suspended in HEPES-glucose buffer ([…]) were incubated with different concentration of α-MSH and its analogues for 2 minutes and further diluted in the same buffer and plated on LB agar plates. The plates were further incubated at 37 °C for 16 h. Next day the colonies were counted.^1 The experiment was performed on two different days and the representative values (mean ± SE) are shown in graph. (⁎, P < 0.05; ⁎⁎, P < 0.01, compared to that of control at the same concentration).

The mark [2] stands for this setting: peptide 1 μM, HEPES-glucose buffer, average of three independent days.
Setting [3] is: peptide 20 μM (highest concentration).
Where [4] appears, read: peptide 10 µM, 2 min of exposure.

Residues, ends and D or L forms follow the SMILES beside them.

Consider `CSCC[C@H](NC(=O)[C@H](CCCCN)NC(=O)[C@H](Cc1ccc(O)cc1)NC(=O)[C@H](CCCCN)NC(C)=O)C(=O)N[C@@H](CCCCN)C(=O)N[C@@H](Cc1c[nH]cn1)C(=O)N[C@@H](Cc1ccccc1)C(=O)N[C@@H](CCCNC(=N)N)C(=O)N[C@@H](Cc1c[nH]c2ccccc12)C(=O)NCC(=O)N[C@@H](CCCCN)C(=O)N1CCC[C@H]1C(=O)N[C@H](C(N)=O)C(C)C` [KKK-MSH] (Ac-KYKMKHFRWGKPV-NH2), for which the PI positive cells entry with E. coli cells is “more than 80%”. Further, in the test on E. coli cells, the “cell viability on plating the cell suspension used for the PI uptake assay, in words” value is “significant reduction in the cell viability”. Besides, the “incubation time to complete removal of the cells” value in test [1] (peptide 1 µM) was 2 h. Moreover, the “log reduction in the viability of the stationary phase cells” value in test [1] (peptide 1 µM, 1 h) is 2.5 log. Further, the “incubation time to eradication of the stationary phase cells” value in test [1] (peptide 10 µM) turned out to be 30 min. Moreover, the “%NPN uptake” value in the test on E. coli outer membrane (setting [2]) amounted to 30.7%; in the test with E. coli outer membrane (peptide 2 μM) it was 34%; in the test with E. coli outer membrane (peptide 5 μM) it was 55.6%; in the test on E. coli outer membrane (peptide 10 μM), 77.6%; in the test with E. coli outer membrane (setting [3]), 86%. Also, the “log reduction in cell viability of dye-loaded cells” value in the test on dye-loaded E. coli cells (peptide 5 µM, 2 min exposure) is on record as 1.73 log; in the test with dye-loaded E. coli cells (setting [4]), 2.1 log.
For `CSCC[C@H](NC(=O)[C@H](CCCCN)NC(=O)[C@H](Cc1ccc(O)cc1)NC(=O)[C@H](CCCCN)NC(C)=O)C(=O)N[C@@H](C)C(=O)N[C@@H](Cc1c[nH]cn1)C(=O)N[C@@H](Cc1ccccc1)C(=O)N[C@@H](CCCNC(=N)N)C(=O)N[C@@H](Cc1c[nH]c2ccccc12)C(=O)NCC(=O)N[C@@H](CCCCN)C(=O)N1CCC[C@H]1C(=O)N[C@H](C(N)=O)C(C)C` [KKA-MSH] (Ac-KYKMAHFRWGKPV-NH2), in the test with E. coli cells, the PI positive cells result is “more than 80%”. Also, in the test with E. coli cells, the “cell viability on plating the cell suspension used for the PI uptake assay, in words” value is on record as “significant reduction in the cell viability”. Further, the “log reduction in cell viability” value in test [1] (HEPES-glucose buffer, 37 °C, peptide 10 µM, 2 h, mean ± SE, three independent days, SEM) came to 2.2 ± 0.2 log. Moreover, the “killing activity against stationary phase cells, in words” value in test [1] (peptide 10 µM, up to 2 h) was “could not obliterate the stationary phase cells”. The “%NPN uptake” value in the test with E. coli outer membrane (setting [2]) is recorded as 12.5%; in the test on E. coli outer membrane (setting [3]) it was 55%. For the same compound, the “log reduction in cell viability of dye-loaded cells” value in the test on dye-loaded E. coli cells (peptide 5 µM, 2 min exposure) was 1 log; with dye-loaded E. coli cells (setting [4]), 1 log.

These data come from publication PMC8821551, “Binding of cationic analogues of α-MSH to lipopolysaccharide and disruption of the cytoplasmic membranes caused bactericidal action against Escherichia coli” (Scientific Reports, 2022).
